Data on 3 compounds can be found in publication PMC9551036, “A selective and orally bioavailable VHL-recruiting PROTAC achieves SMARCA2 degradation in vivo” (Nature Communications, 2022).

The structures appear in SMILES notation. “And” between values parts separate entries of the source, which are not always exact repeats. Equal values may be shown once. Read-outs that look alike come from different tables or passages of the source.

One series in a line: Plasma protein binding. The series is classed as in vitro ADME. The settings on record: 10% calf; for fraction unbound at 5 h, 3 µmol/L: bovine, read-out: PPB fu 10% Calf. The procedure: Binding of compound to plasma proteins was determined by equilibrium dialysis of 3 µmol/L compound in plasma (or plasma dilutions in PBS) against PBS through an 8 kDa molecular-weight cut-off cellulose membrane (RED device, Thermo Fisher) at 37 °C for 5 h. After incubation, aliquots from donor and acceptor compartments were precipitated and the concentrations in the supernatants were determined by quantitative LC-MS/MS. Calibration and quality control samples were prepared using blank plasma and internal standard. The fraction unbound was calculated as ratio of the compound concentration in the acceptor compartment to the concentration in the donor compartment.

Series [1] can be described thus: Bidirectional permeability measurement in Caco-2 cells. The series is classed as in vitro ADME. The following applies: human. The method, boiled down:
(§1)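 Caco-2 monolayers grown 14–21 days, preincubated 24 h with medium containing 1 µM compound; bidirectional transport sampled up to 2 h, quantified by LC-MS/MS, ± 5 µM zosuquidar (P-gp inhibitor). Papp,AB and Papp,BA from receiver amount, donor C0, area and time; efflux ratio = Papp,BA/Papp,AB (duplicate means). TEER checked per plate.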
In general terms: Caco-2 cells form a polarised layer with tight junctions and transporters.

A short description of a further series: Microsomal stability. The series is classed as in vitro ADME. The following applies: for Mic. Stab. Human / Mic. Stab. Human QH: human liver microsomes; for Mic. Stab. Mouse / Mic. Stab. Mouse QH: mouse liver microsomes; for Mic. Stab. Rat / Mic. Stab. Rat QH: rat liver microsomes. The procedure: […] Reactions were terminated by addition of acetonitrile and precipitates separated by centrifugation. Compound concentrations in supernatants were measured by HPLC-MS/MS and clearance was calculated from compound half-lives using the well-stirred liver model.
Background: Liver microsomes are vesicles of endoplasmic reticulum, rich in cytochrome P450 enzymes.

Another series concerns P-gp. Kind of series: Bidirectional permeability measurement in Caco-2 cells. Format: in vitro ADME. The settings on record: human, Caco-2, pH 7.4, with zosuquidar 5 µM. The method, boiled down: as §1
Another series deals with SMARCA2 (Homo sapiens, UniProt P51531). Description: SMARCA2 capillary electrophoresis protein assay in other cell lines (A549, NCI-H1568, HCT116, LU99, HCC-364, HCT-15, HCC4006, SK-N-AS). Format: cell-based. Set-up: endogenous in cells; host or cells: RKO, NCI-H1568, A549, HCT116, LU99, HCC-364, HCT-15, HCC4006, SK-N-AS. As for the experimental part: 130,000–200,000 cells were seeded in 24-well plates and incubated until settled down or overnight. Compounds were dissolved in DMSO and added to cells in indicated concentrations using a digital dispenser following an optional media change. Cells were incubated for 4 or 18 h as indicated. For SMARCA2/4 half-life determination, 150,000 or 200,000 cells were seeded in 24-well plates. The next day, 50 µg/ml cycloheximide (Sigma) was added and cells were incubated for 1–24 h. For SMARCA2/4 re-synthesis measurements, 200,000 cells were seeded in 24-well plates. The next day, 100 nM compound 6 was added for 4 h to degrade SMARCA2/4, and a sample was taken as baseline for normalisation. To allow re-synthesis, a VHL binder (compound 32, 25 or 50 µM) was then added for 3 or 24 h. Medium was removed, cells were washed with PBS and lysed with 80 µl Lysis Buffer (MSD Tris Lysis Buffer (#R60TX-2) + Halt Inhibitor Cocktail (100x) + Benzonase 0.5 µL/ml). Samples were frozen at −80 °C and thawed at room temperature before use. Samples were transferred to a V-bottom plate and insoluble debris was pelleted by centrifugation for 5 min at maximum speed. The supernatant was transferred to a fresh plate. Master Mix and Ladder were prepared according to manufacturer’s instructions for 12–230 kDa Wes Separation Module, 8 × 25 capillary cartridges, Protein Simple #SM-W004 with Anti-Rabbit Detection Module for Wes, Peggy Sue or Sally Sue, Protein Simple #DM-001. 4.8 µl lysate were mixed with 1.2 µl Master Mix to achieve a protein concentration of ~0.5 µg/µl. Antibodies were diluted in Antibody Diluent II (SMARCA2 Sigma #HPA029981 RRID:AB_10602406 1:25–100, SMARCA4 Cell Signalling #49360 clone D1Q7F RRID:AB_2728743 1:15–120 or Abcam #ab110641 clone EPNCIR111A RRID:AB_10861578 1:60, GAPDH Abcam #ab9485 RRID:AB_307275 1:250). Wes plates were prepared and run according to manufacturer’s instructions. Proteins were quantified with accompanying Compass Software. SMARCA2/4 protein levels were normalised to GAPDH. […] Where applicable, curves were fitted using a 4-parametric logistic model.

Where [2] appears, read: 10% calf plasma dilution in PBS, fraction unbound.
[3] abbreviates: 10% plasma (plasma dilution in PBS).
Setting [4] is: Caco-2, pH 7.4, Caco-2, b to a, read-out: Caco-2 Pba.
Setting [5] is: Caco-2, pH 7.4, Caco-2, read-out: Caco-2 Efflux ratio.
The mark [6] stands for this setting: Caco-2, pH 7.4, Modified Caco-2, b to a, read-out: Modified Caco-2 Pba.
Where [7] appears, read: Caco-2, pH 7.4, Modified Caco-2, read-out: Modified Caco-2 Efflux ratio.
Where [8] appears, read: Caco-2, pH 7.4, Modified Caco-2, read-out: Modified Caco-2 Pab.
Where [9] appears, read: Caco-2, pH 7.4, Caco-2, read-out: Caco-2 Pab.
The mark [10] stands for this setting: NCI-H1568 (4 h), mean ± SD, read-out: SMARCA2 DC50.
The mark [11] stands for this setting: NCI-H1568, 4h, individual replicates, read-out: NCI-H1568 (4h) SMARCA2 DC50.

SMARCA2, sequence (P51531 whole entry): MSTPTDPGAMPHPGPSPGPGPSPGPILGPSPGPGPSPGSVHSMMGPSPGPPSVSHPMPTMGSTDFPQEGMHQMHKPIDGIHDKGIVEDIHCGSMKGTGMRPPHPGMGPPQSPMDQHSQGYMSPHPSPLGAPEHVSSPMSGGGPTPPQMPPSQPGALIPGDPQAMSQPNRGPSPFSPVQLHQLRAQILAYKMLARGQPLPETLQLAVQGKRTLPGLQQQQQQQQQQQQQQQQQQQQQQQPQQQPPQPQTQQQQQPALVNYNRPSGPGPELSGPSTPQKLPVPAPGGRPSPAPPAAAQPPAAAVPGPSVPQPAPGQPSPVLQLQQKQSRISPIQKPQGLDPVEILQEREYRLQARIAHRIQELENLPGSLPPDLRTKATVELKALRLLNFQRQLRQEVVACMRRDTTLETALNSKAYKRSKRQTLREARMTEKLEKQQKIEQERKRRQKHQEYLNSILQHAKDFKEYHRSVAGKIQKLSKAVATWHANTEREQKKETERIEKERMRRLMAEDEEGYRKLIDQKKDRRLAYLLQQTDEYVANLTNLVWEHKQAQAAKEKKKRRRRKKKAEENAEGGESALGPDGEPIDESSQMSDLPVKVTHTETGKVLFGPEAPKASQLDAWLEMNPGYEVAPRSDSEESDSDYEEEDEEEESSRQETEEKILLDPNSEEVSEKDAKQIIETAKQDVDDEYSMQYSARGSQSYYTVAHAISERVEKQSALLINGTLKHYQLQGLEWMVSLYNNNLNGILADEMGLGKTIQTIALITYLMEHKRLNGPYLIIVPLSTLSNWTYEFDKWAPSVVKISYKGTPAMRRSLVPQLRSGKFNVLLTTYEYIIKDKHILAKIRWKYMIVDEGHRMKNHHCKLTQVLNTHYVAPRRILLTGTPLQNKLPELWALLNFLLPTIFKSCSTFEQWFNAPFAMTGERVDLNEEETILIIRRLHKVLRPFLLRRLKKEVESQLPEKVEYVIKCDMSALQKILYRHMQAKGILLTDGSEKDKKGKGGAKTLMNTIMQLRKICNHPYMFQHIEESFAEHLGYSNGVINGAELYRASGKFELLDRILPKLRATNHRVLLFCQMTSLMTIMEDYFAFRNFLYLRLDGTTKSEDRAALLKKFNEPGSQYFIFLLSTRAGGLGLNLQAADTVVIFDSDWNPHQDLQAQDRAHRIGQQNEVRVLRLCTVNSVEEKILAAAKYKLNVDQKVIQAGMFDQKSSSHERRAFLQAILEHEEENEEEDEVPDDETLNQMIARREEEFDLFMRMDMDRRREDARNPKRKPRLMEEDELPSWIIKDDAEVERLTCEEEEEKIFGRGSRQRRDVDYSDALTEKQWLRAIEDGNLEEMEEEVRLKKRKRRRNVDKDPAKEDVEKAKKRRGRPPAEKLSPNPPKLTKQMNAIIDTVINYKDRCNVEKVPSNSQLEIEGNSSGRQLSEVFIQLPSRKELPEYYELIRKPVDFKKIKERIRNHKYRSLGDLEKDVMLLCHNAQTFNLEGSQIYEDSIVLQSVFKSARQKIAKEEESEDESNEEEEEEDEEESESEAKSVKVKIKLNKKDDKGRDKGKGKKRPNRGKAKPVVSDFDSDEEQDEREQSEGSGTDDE

For the compound `Cc1ncsc1-c1ccc([C@H](COC(C)CN2CCC(c3ccc4c(c3)n(C3CCCC3)c3nc(=O)c5c(Br)cccc5n43)CC2)NC(=O)[C@@H]2C[C@@H](O)CN2C(=O)[C@@H](NC(=O)C2(N(C)C)CC2)C(C)(C)C)cc1` (stereo partly shown) [compound 10], in the series “Plasma protein binding” (setting [2]), the fraction unbound at 5 h, 3 µmol/L was 0.05. In the series “Plasma protein binding” (setting [3]), the fraction unbound at 5 h, 3 µmol/L turned out to be 0.0548. Besides, the Papp B→A at 1 µM in series [1] (setting [4]) was determined as 26 ×10⁻⁶ cm/s. Moreover, in series [1] (setting [5]), the efflux ratio at 2 h, 1 µM was determined as 4.64. For the same compound, the Papp B→A at 1 µM in series [1] (setting [6]) is 69 ×10⁻⁶ cm/s. Also, the efflux ratio at 2 h, 1 µM in series [1] (setting [7]) came to 36.3. In series [1] (setting [8]), the Papp A→B at 1 µM is less than 1 ×10⁻⁶ cm/s. Also, in the series “Microsomal stability”, the “Mic. Stab. Human” value amounted to 86 % QH; the “Mic. Stab. Human QH” value is 85.500%; the “Mic. Stab. Mouse” value worked out at 68 ± 2 % QH; the “Mic. Stab. Mouse QH” value is 66.900% and 69.700%. In the series “Microsomal stability”, the “Mic. Stab. Rat” value worked out at 51 ± 2 % QH; the “Mic. Stab. Rat QH” value was 49.700% and 52.900%.

Consider `Cc1ncsc1-c1ccc([C@H](COC(C)CN2CCC(c3ccc4c(c3)n(C3CCCC3)c3nc(=O)c5c(Br)cccc5n43)CC2)NC(=O)[C@@H]2C[C@@H](O)CN2C(=O)[C@@H](NC(=O)C2(F)CC2)C(C)(C)C)cc1` (stereo partly shown) [compound 9], for which, in “Plasma protein binding”, the “PPB fu 10% Calf” value is reported as 8.695%. Moreover, in “Plasma protein binding” (setting [2]), the fraction unbound at 5 h, 3 µmol/L was found to be 0.07 ± 0.02. For the same compound, the fraction unbound at 5 h, 3 µmol/L in the series “Plasma protein binding” (setting [3]) was 0.0538. The Papp B→A at 1 µM in series [1] (setting [4]) came to 34 ×10⁻⁶ cm/s. The Papp A→B at 1 µM in series [1] (setting [9]) is 6 ± 2 ×10⁻⁶ cm/s. Besides, the Papp B→A at 1 µM in series [1] (setting [6]) was 170 ×10⁻⁶ cm/s. Besides, the efflux ratio at 2 h, 1 µM in series [1] (setting [7]) was found to be 44.8. In series [1] (setting [8]), the Papp A→B at 1 µM was found to be 4 ± 2 ×10⁻⁶ cm/s. The Papp A→B at 1 µM in the series on P-gp (Modified Caco-2 + PGPi (Zosuquidar), read-out: Modified Caco-2 + PGPi (Zosuquidar) Pab) was determined as 12 ± 2 ×10⁻⁶ cm/s. For the same compound, the Papp B→A at 2 h, 1 µM in the series on P-gp (Modified Caco-2, b to a, + PGPi (Zosuquidar), read-out: Modified Caco-2 Pba + PGPi (Zosuquidar)) was 19 ×10⁻⁶ cm/s. In “Microsomal stability”, the “Mic. Stab. Human” value was found to be 55 ± 1 % QH; the “Mic. Stab. Human QH” value is 54.100% and 55.600%; the “Mic. Stab. Mouse” value came out at 27 ± 3 % QH; the “Mic. Stab. Mouse QH” value was 24.700% and 28.800% and < 24.200%. Further, in “Microsomal stability”, the “Mic. Stab. Rat” value is on record as less than 23 % QH and the “Mic. Stab. Rat QH” value is recorded as <23.100 <23.100 <23.100%. The compound also registered a Dmax at SMARCA2 (NCI-H1568 (4 h), mean ± SD) of 92 ± 8%. For the same compound, the DC50 on SMARCA2 (setting [10]) worked out at 32 ± 17 nM. Also, the DC50 at SMARCA2 (setting [11]) is 54.9 nM and 24.6 nM and 25.2 nM.

As to `CN1CCC(c2ccc3c(c2)n(C2CCCC2)c2nc(=O)c4c(Br)cccc4n32)CC1` [compound 3], the Papp B→A at 1 µM in series [1] (setting [4]) worked out at 21.7 ×10⁻⁶ cm/s. In series [1] (setting [5]), the efflux ratio at 2 h, 1 µM worked out at 0.768. Also, the Papp A→B at 1 µM in series [1] (setting [9]) turned out to be 28 ×10⁻⁶ cm/s. Moreover, in the series “Microsomal stability”, the “Mic. Stab. Human” value is given as less than 24 % QH; the “Mic. Stab. Human QH” value is recorded as less than 24.400%; the “Mic. Stab. Mouse” value is listed as 43 ± 10 % QH; the “Mic. Stab. Mouse QH” value was 34.400% and 53.600% and 50.410%. Besides, in “Microsomal stability”, the “Mic. Stab. Rat” value is reported as 28 ± 1 % QH; the “Mic. Stab. Rat QH” value was < 23.100% and 27.400% and 28.840%. Besides, the DC50 on SMARCA2 (setting [10]) is greater than 2500 nM. Further, on SMARCA2 (setting [11]), the DC50 was greater than 2500 nM.
